Measured values from patent publication US10138255B2, “Piperazine derivatives as HIV protease inhibitors” (Merck Sharp & Dohme Corp., priority 2014, dated 2018).

System: HIV-1 (H9IIIB strain)
Test: Cell-Based HIV Infection Assay Using a Reporter (MT4-GFP cells)
Conditions: Human immunodeficiency virus 1, inflection point (IP) of viral growth inhibition; MT4-GFP cells infected with HIV-1 H9IIIB; 50% normal human serum; mean of at least two independent experiments; read-out: Cell Based IP (50% NHS)
Method in brief: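 Inflection point from a 4-parameter curve of % viral growth inhibition, normalised to DMSO and triple-drug controls, using the 48 h/24 h ratio of GFP-positive cells (R0). MT4-GFP cells pre-infected 24 h with HIV-1 H9IIIB at low MOI; compounds tested in 50% normal human serum, 0.4% DMSO; mean of ≥2 experiments.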

In order of rising EC50:
1. N[C@H](C(=O)Nc1cncc(F)c1CC[C@H]1CN[C@@H]2CCCS(=O)(=O)N1C2)[C@@H](c1ccc(Cl)cc1)c1cc(F)cc(F)c1 [Example 236, (βS)-β-(4-chlorophcnyl)-N-(4-{2-[(6R,9S)-2,2-dioxido-2-thia-1,7-diazabicyclo[4.3.1]dec-9-yl]ethyl}-5-fluoropyridin-3-yl)-3,5-difluoro-L-phenylalaninamide]  0.0028 µM
2. N[C@H](C(=O)Nc1cncc(F)c1CC[C@H]1CN[C@@H]2CCCS(=O)(=O)N1C2)[C@@H](c1ccc(Cl)c(F)c1)C1CCCCC1 [Example 244, (2S,3R)-2-amino-3-(4-chloro-3-fluorophenyl)-3-cyclohexyl-N-(4-(2-((6R,9S)-2,2-dioxido-2-thia-1,7-diazabicyclo[4.3.1]decan-9-yl)ethyl)-5-fluoropyridin-3-yl)propanamide]  0.0043 µM
3. CO[C@H]1CC[C@H]([C@H](c2ccc(Cl)cc2)[C@H](N)C(=O)Nc2cncc(F)c2CC[C@H]2CN[C@@H]3CCCS(=O)(=O)N2C3)CC1 [Example 239, (2S,3R)-2-amino-3-(4-chlorophenyl)-N-(4-(2-((6R,9S)-2,2-dioxido-2-thia-1,7-diazabicyclo[4.3.1]decan-9-yl)ethyl)-5-fluoropyridin-3-yl)-3-((1r,4R)-4-methoxycyclohexyl)propanamide]  0.0056 µM
4. COC(=O)N[C@H](C(=O)Nc1cccc(F)c1CCC1CNC2CCCS(=O)(=O)N1C2)[C@@H](c1ccc(F)cc1)c1ccc(C(F)(F)F)cc1 (stereo partly drawn) [Example 224, Methyl [(1S)-2-({2-[2-(2,2-dioxido-2-thia-1,7-diazabicyclo[4.3.1]dec-9-yl)ethyl]-3-fluorophenyl}amino)-1-{(R)-(4-fluorophenyl)[4-(trifluoromethyl)phenyl]methyl}-2-oxoethyl]carbamate]  0.0057 µM
5. C[C@@H]1CC([C@H](c2ccc(Cl)c(F)c2)[C@H](N)C(=O)Nc2cncc(F)c2CC[C@H]2CN[C@@H]3CCCS(=O)(=O)N2C3)C[C@H](C)O1 (stereo partly drawn) [Example 245, (2S,3R)-2-amino-3-(4-chloro-3-fluorophenyl)-3-((2R,6S)-2,6-dimethyltetrahydro-2H-pyran-4-yl)-N-(4-(2-((6R,9S)-2,2-dioxido-2-thia-1,7-diazabicyclo[4.3.1]decan-9-yl)ethyl)-5-fluoropyridin-3-yl)propanamide]  0.0058 µM
6. N[C@H](C(=O)Nc1cccc(F)c1CCC1CNC2CCCS(=O)(=O)N1C2)[C@H](c1cncc(C(F)(F)F)c1)c1ccc(Cl)c(F)c1 (stereo partly drawn) [Example 227, (βS)-4-Chloro-N-{2-[2-(2,2-dioxido-2-thia-1,7-diazabicyclo[4.3.1]dec-9-yl)ethyl]-3-fluorophenyl}-3-fluoro-β-[5-(trifluoromethyl)pyridin-3-yl]-L-phenylalaninamide]  0.0071 µM
7. N[C@H](C(=O)Nc1cncc(F)c1CC[C@H]1CN[C@@H]2CCCS(=O)(=O)N1C2)[C@@H](c1ccc(Cl)cc1)C1CCC(F)(F)CC1 [Example 241, (2S,3R)-2-amino-3-(4-chlorophenyl)-3-(4,4-difluorocyclohexyl)-N-(4-(2-((6R,9S)-2,2-dioxido-2-thia-1,7-diazabicyclo[4.3.1]decan-9-yl)ethyl)-5-fluoropyridin-3-yl)propanamide]  0.0073 µM
8. CC1(C)C[C@@H]([C@H](c2ccc(Cl)c(F)c2)[C@H](N)C(=O)Nc2cncc(F)c2CC[C@H]2CN[C@@H]3CCCS(=O)(=O)N2C3)CCO1 [Example 243, (2S,3R)-2-amino-3-(4-chloro-3-fluorophenyl)-3-((S)-2,2-dimethyltetrahydro-2H-pyran-4-yl)-N-(4-(2-((6R,9S)-2,2-dioxido-2-thia-1,7-diazabicyclo[4.3.1]decan-9-yl)ethyl)-5-fluoropyridin-3-yl)propanamide]  0.008 µM
9. COC(=O)N[C@H](C(=O)Nc1ccc(F)c(F)c1CC[C@H]1CN[C@@H]2CCCS(=O)(=O)N1C2)[C@@H](c1ccc(F)cc1)C1C[C@@H](C)O[C@@H](C)C1 (stereo partly drawn) [Example 228, Methyl [(1S,2R)-2-[(2R,6S)-2,6-dimethyltetrahydro-2H-pyran-4-yl]-1-[(2-{2-[(6R,9S)-2,2-dioxido-2-thia-1,7-diazabicyclo[4.3.1]dec-9-yl]ethyl}-3,4-difluorophenyl)carbamoyl]-2-(4-fluorophenyl)ethyl]carbamate]  0.01 µM
10. NC(C(=O)Nc1cccc(F)c1CC[C@H]1CN[C@@H]2CCCS(=O)(=O)N1C2)[C@@H](c1ccc(Cl)cc1)[C@H]1CC[C@H](O)CC1 (stereo partly drawn) [Example 217, (βR)-4-chloro-N-(2-{2-[(6R,9S)-2,2-dioxido-2-thia-1,7-diazabicyclo[4.3.1]dec-9-yl]ethyl}-3-fluorophenyl)-β-[(1r,4R)-4-hydroxycyclohexyl]-L-phenylalaninamide]  0.013 µM
11. CC(C)[C@H](c1ccc(Cl)cc1)[C@H](N)C(=O)Nc1cncc(F)c1CC[C@H]1CN[C@@H]2CCCS(=O)(=O)N1C2 [Example 238, (2S,3R)-2-amino-3-(4-chlorophenyl)-N-(4-(2-((6R,9S)-2,2-dioxido-2-thia-1,7-diazabicyclo[4.3.1]decan-9-yl)ethyl)-5-fluoropyridin-3-yl)-4-methylpentanamide]  0.013 µM
12. CCC(CC)[C@H](c1ccc(Cl)cc1)[C@H](N)C(=O)Nc1cncc(F)c1CC[C@H]1CN[C@@H]2CCCS(=O)(=O)N1C2 [Example 242, (2S,3R)-2-amino-3-(4-chlorophenyl)-N-(4-(2-((6R,9S)-2,2-dioxido-2-thia-1,7-diazabicyclo[4.3.1]decan-9-yl)ethyl)-5-fluoropyridin-3-yl)-4-ethylhexanamide]  0.017 µM
13. N[C@H](C(=O)Nc1cccc(F)c1CCC1CNC2CCCS(=O)(=O)N1C2)[C@@H](c1ccc(F)cc1)c1ccc2c(c1)CCC2 (stereo partly drawn) [Example 225, (2S,3S)-2-Amino-3-(2,3-dihydro-1H-inden-5-yl)-N-{2-[2-(2,2-dioxido-2-thia-1,7-diazabicyclo[4.3.1]dec-9-yl)ethyl]-3-fluorophenyl}-3-(4-fluorophenyl)propanamide]  0.045 µM
14. N[C@H](C(=O)Nc1cncc(F)c1CC[C@H]1CN[C@@H]2CCCS(=O)(=O)N1C2)[C@H](c1cncc(F)c1)c1ccc(Cl)c(F)c1 [Example 234, (βS)-4-chloro-N-(4-{2-[(6R,9S)-2,2-dioxido-2-thia-1,7-diazabicyclo[4.3.1]dec-9-yl]ethyl}-5-fluoropyridin-3-yl)-3-fluoro-β-(5-fluoropyridin-3-yl)-L-phenylalaninamide]  0.05 µM
15. N[C@H](C(=O)Nc1cncc(F)c1CC[C@H]1CN[C@@H]2CCCS(=O)(=O)N1C2)C1(c2ccc(Cl)cc2)CCOCC1 [Example 233, (2S)-2-amino-2-[4-(4-chlorophenyl)tetrahydro-2H-pyran-4-yl]-N-(4-{2-[(6R,9S)-2,2-dioxido-2-thia-1,7-diazabicyclo[4.3.1]dec-9-yl]ethyl}-5-fluoropyridin-3-yl)ethanamide]  0.067 µM
16. CO[C@H]1CC[C@](c2ccc(F)cc2)([C@H](N)C(=O)Nc2cncc(F)c2CC[C@H]2CN[C@@H]3CCCS(=O)(=O)N2C3)CC1 [Example 235, (2S)-2-amino-N-(4-{2-[(6R,9S)-2,2-dioxido-2-thia-1,7-diazabicyclo[4.3.1]dec-9-yl]ethyl}-5-fluoropyridin-3-yl)-2-[trans-1-(4-fluorophenyl)-4-methoxycyclohexyl]ethanamide]  0.067 µM
17. CC1(C)CC([C@H](c2ccc(Cl)cc2)[C@H](NC(=O)C(C)(C)N)C(=O)N[C@H]2CCC[C@@H]2CC[C@H]2CN[C@@H]3CCCS(=O)(=O)N2C3)CCO1 (stereo partly drawn) [Example 237, 2-methylalanyl-(βR)-4-chloro-β-(2,2-dimethyltetrahydro-2H-pyran-4-yl)-N-[(1S,2R)-2-{2-[(6R,9S)-2,2-dioxido-2-thia-1,7-diazabicyclo[4.3.1]dec-9-yl]ethyl}cyclopentyl]-L-phenylalaninamide]  0.15 µM
18. COC(=O)CCCN[C@H](C(=O)N[C@H]1CCC[C@@H]1CC[C@H]1CN[C@@H]2CCCS(=O)(=O)N1C2)[C@@H](c1ccc(Cl)cc1)C1CCOC(C)(C)C1 (stereo partly drawn) [Example 229, methyl 4-{[(1S,2R)-2-(4-chlorophenyl)-2-(2,2-dimethyltetrahydro-2H-pyran-4-yl)-1-{[(1S,2R)-2-{2-[(6R,9S)-2,2-dioxido-2-thia-1,7-diazabicyclo[4.3.1]dec-9-yl]ethyl}cyclopentyl]carbamoyl}ethyl]amino} butanoate]  0.21 µM
19. CC1(C)CC([C@H](c2ccc(Cl)cc2)[C@H](NCCOCc2ccccc2)C(=O)N[C@H]2CCC[C@@H]2CC[C@H]2CN[C@@H]3CCCS(=O)(=O)N2C3)CCO1 (stereo partly drawn) [Example 230, (βR)-Nα-[2-(benzyloxy)ethyl]-4-chloro-β-(2,2-dimethyltetrahydro-2H-pyran-4-yl)-N-[(1S,2R)-2-{2-[(6R,9S)-2,2-dioxido-2-thia-1,7-diazabicyclo[4.3.1]dec-9-yl]ethyl}cyclopentyl]-L-phenylalaninamide]  0.31 µM
20. CC1(C)CC([C@H](c2ccc(Cl)cc2)[C@H](NCCO)C(=O)N[C@H]2CCC[C@@H]2CC[C@H]2CN[C@@H]3CCCS(=O)(=O)N2C3)CCO1 (stereo partly drawn) [Example 231, (βR)-4-chloro-β-(2,2-dimethyltetrahydro-2H-pyran-4-yl)-N-[(1S,2R)-2-{2-[(6R,9S)-2,2-dioxido-2-thia-1,7-diazabicyclo[4.3.1]dec-9-yl]ethyl}cyclopentyl]-Nα-(2-hydroxyethyl)-L-phenylalaninamide]  0.31 µM
21. CC1(C)CC([C@H](c2ccc(Cl)cc2)[C@H](NC(=O)CN)C(=O)N[C@H]2CCC[C@@H]2CC[C@H]2CN[C@@H]3CCCS(=O)(=O)N2C3)CCO1 (stereo partly drawn) [Example 232, glycyl-(βR)-4-chloro-β-(2,2-dimelhyltetrahydro-2H-pyran-4-yl)-N-[(1S,2R)-2-{2-[(6R,9S)-2,2-dioxido-2-thia-1,7-diazabicyclo[4.3.1]dec-9-yl]ethyl}cyclopentyl]-L-phenylalaninamide]  2.5 µM
